Here are results for seven compounds from patent publication US5187157A, “Peptide boronic acid inhibitors of trypsin-like proteases” (Du Pont Merck Pharmaceutical Company, priority 1988, dated 1993).

Data set [1] has as its system normal human plasma. Description: Activated partial thromboplastin times (APTT), blood coagulation in vitro. Type of data set: biochemical. To be noted: for Calc. Concentration 2 × APTT: approximate concentration required to increase APTT two fold. On the procedure:
(§1) The effectiveness of inhibitors in reactions in which they compete with natural substrates for target enzymes is measured in vitro in blood coagulation assays. Two different assays are used, the APTT (activated partial thromboplastin times) and PT (prothrombin times) assays. These assays mimic the blood clotting process in vivo. Blood coagulation occurs through either of two pathways, each consisting of a cascades of zymogen activation steps. The pathways are termed the intrinsic and the extrinsic pathways (see L. Lorand, Methods in Enzymology 45: 31-37 (1976). The intrinsic pathway is initiated by negatively charged surfaces in which plasma kallikrein, factor XII and factor […] are activated and then factors IX and X and prothrombin are activated in calcium dependent steps. Thrombin, the last protease in the cascade, hydrolyses fibrinogen to fibrin which results in clot formation. In the APTT assay, plasma components are activated by exposure to negatively charged surfaces and then clotting times are measured after calcium is added to the system. In the extrinsic pathway, tissue thromboplastin activates factor VII which then activates factor X leading to the activation of thrombin. These events are measured in the prothrombin times assay.
The effect of protease inhibitors on blood coagulation in vitro was determined by measuring their effects on two different clinical parameters, the activated partial thromboplastin times (APTT) and prothrombin times (PT). Reagents for each of these assays were supplied by General Diagnostics, Jessup MD. Stock solutions of inhibitors were prepared in […] HEPES buffer, pH 7.5, containing 0.10 M sodium chloride. For the APTT assay, the inhibitor solution (0.100 mL) was incubated with normal human plasma (0.100 mL) and automated APTT reagent (0.100 mL). After incubation for 5.0 min at 37°, calcium chloride (0.100 mL) was added and the clotting times, measured in seconds, was determined on a fibrameter. The effects of the varying concentrations of inhibitor on blood clotting times compared with the clotting times of controls run in the absence of inhibitor, are shown in Table 3.

The nature of data set [2]: Stability of Inhibitors in Human Plasma As Measured By APTT. Type of data set: in vitro ADME. The conditions noted are these: for Clotting Time: 250 nM in APTT assay. On the procedure: The stability of inhibitors in plasma was determined by their ability to inhibit blood coagulation. First, a stock solutions (1.0 μM) of the inhibitors to be tested in 25 mM HEPES buffer, pH 7.5, containing 0.10 M sodium chloride were diluted 50% with normal human plasma. The mixtures were made at 0°, then aliquots (0.200 mL) were removed and incubated for 2 min at 37°. An equal volume of automated APTT reagent was added and clotting times were measured as described in Examples 111-117. The final concentration of inhibitor during the clotting assays was 250 nM. Values for compounds E and F were determined simultaneously with the Control. Values for compounds A, B and C were obtained on a different day.

Data set [3] concerns normal human plasma. Briefly: Prothrombin times (PT), blood coagulation in vitro. In kind it is biochemical. To be noted: for Calc. Concentration 2 × XPT: approximate concentration required to increase PT two fold. On the procedure:
as §1
For PT assays, inhibitor solutions (0.100 mL) were incubated with normal human plasma (0.100 mL) for 2 min at 37°.

A further data set has as its system Sprague Dawley CD Rats. Description: In Vivo Inhibition of Croton Oil Induced Inflammation (ear swelling). The conditions noted are these: Table 14; dose=100 μg, essentially the same conditions.
The nature of data set [4]: Stability of Inhibitors in Buffer (thrombin assay). The conditions noted are these: for stability in phosphate buffer at pH 7.5 (inhibitory activity): phosphate buffer pH 7.5; for Percent Thrombin activity: 1.0 μM.
Experimental: Samples of the inhibitors are removed at increasing time intervals and their ability to delay clotting is measured at each interval.
Inhibitors, each at a concentration of 1.0 μM, were incubated at room temperature in 0.20 M sodium phosphate buffer, pH 7.5, containing 0.20 M sodium chloride and 0.10% PEG.
Another data set addresses T1, Human thrombin (Homo sapiens, UniProt P00734).
T1 construct: purchased R.Q.P. Laboratories, South Bend, IN Lot HT102
Briefly: Inhibition of Thrombin (Esterase Activity). In kind it is biochemical. The conditions noted are these: inhibitor 5 nM; activity remaining 10 to 20 min after initiation. On the procedure: (§2) In the Examples which follow, the hydrolytic activity of each enzyme is measured in both the presence and absence of inhibitor and the percent enzyme activity determined. […] A steady state is reached fairly rapidly and nears completion within 5 min. Activity is evaluated between 10-20 min after the components are mixed to insure that reaction components are at equilibrium. The lowest concentration of inhibitor tested is determined by the estimated concentration of enzyme. […] The maintenance of pseudo-first-order reaction conditions and the sensitivity of the respective assays sets the lowest limit level of inhibitor tested at 10 nM for kallikrein inhibitors and 5 nM for thrombin inhibitors.
A stock solution of thrombin was prepared in 0.010M PIPES Buffer, pH 6.0, containing 0.75 M sodium chloride. […] The initial concentration of substrate was 0.10 mM and the concentration of thrombin was 1.0 nM (based on weight).

In the next data set the test system is plasma. The conditions noted are these: at 1 μM; Green et al.; cited from earlier work.
The next data set concerns rats. To be noted: Tremoli et al.; cited from earlier work.
Another data set has as its target thrombin. To be noted: literature; cited from earlier work.
The next data set concerns rabbit. To be noted: rabbit model; Shaw et al.; cited from earlier work.
A further data set concerns the target T2, Human plasma kallikrein (Homo sapiens, UniProt P03952).
T2 construct: purchased Protogen AG (Switzerland)
Briefly: Inhibition of Human Plasma Kallikrein. Type of data set: biochemical. To be noted: inhibitor 10 nM; activity remaining 10 to 20 min after initiation. As to the method:
as §2
Human plasma kallikrein was obtained from Protogen AG (Switzerland). The specific activity as described by the supplier is 15 units per mg. A unit is defined as the quantity of enzyme required to hydrolyze 1 μmole of substrate, H-(D)Pro-Phe-Arg-p-nitroanilide (Kabi S2302), per min at a substrate concentration of 0.50 mM at 25° in 50 mM potassium phosphate buffer, pH 8.0.

Where [5] appears, read: incubation in human plasma 0.5 h.
Where [6] appears, read: incubation in human plasma 24 h.
Setting [7] is: 0 hr in 0.20 M sodium phosphate buffer pH 7.5, room temperature.

T2 sequence (P03952 391-638 limits assumed): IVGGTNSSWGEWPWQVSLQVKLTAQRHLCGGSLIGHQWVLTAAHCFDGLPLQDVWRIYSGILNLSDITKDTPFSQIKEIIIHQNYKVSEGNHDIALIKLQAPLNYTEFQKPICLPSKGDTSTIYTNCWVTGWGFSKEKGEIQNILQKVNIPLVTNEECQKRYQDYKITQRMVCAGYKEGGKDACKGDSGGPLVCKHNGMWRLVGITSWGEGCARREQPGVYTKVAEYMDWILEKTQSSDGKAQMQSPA
T2 sequence (P03952 20-390 partner limits assumed): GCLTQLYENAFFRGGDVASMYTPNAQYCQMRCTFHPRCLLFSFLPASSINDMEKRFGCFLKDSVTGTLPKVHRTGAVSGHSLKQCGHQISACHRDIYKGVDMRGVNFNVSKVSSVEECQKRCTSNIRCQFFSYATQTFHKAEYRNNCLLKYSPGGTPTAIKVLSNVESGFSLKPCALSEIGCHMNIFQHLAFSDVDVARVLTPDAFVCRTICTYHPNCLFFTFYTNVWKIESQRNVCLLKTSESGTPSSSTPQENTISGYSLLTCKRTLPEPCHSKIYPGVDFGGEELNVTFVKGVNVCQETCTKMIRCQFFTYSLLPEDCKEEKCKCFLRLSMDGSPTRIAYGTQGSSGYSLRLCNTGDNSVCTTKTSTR
Experimental for Sprague Dawley CD Rats: Two solutions were prepared, the first consisting of 5% croton oil, a known inflammatory agent, in an acetone carrier (Croton Solution) and the second consisting of 5% croton oil in an acetone carrier to which 10 mg/mL of a compound of the invention was added (Compound Solution). The Croton Solution (10 μL), or alternatively the Compound Solution (10 μL), was applied to the right ear of each animal (Sprague Dawley CD Rats, 130-140 g, supplied by Charles River Labs, Inc., Wilmington, MA). […] "SE" denotes standard error.

As for `Br.CC(C)(C)OC(=O)NC(Cc1ccccc1)C(=O)N1CCCC1C(=O)NC(CCCSC(=N)N)B1OC2CC3CC(C3(C)C)C2(C)O1` (stereo not drawn) [C, Boc-(D)Phe-Pro-boroIrg-C10 H16.HBr], in the data set with normal human plasma [1], the “Calc. Concentration 2 × APTT” value was 200 nM. In addition, the “Activated Partial Thromboplastin Times” value in the data set with normal human plasma [1] (inhibitor 62.5 nM) came out at 39.2 s; with normal human plasma [1] (inhibitor 125 nM), 46.9 s; in the data set with normal human plasma [1] (inhibitor 200 nM), 67 s; with normal human plasma [1] (inhibitor 250 nM), 160 s; in the data set with normal human plasma [1] (inhibitor 300 nM), 197.8 s; with normal human plasma [1] (inhibitor 350 nM), 301.8 s. Besides, the “Clotting Time” value in data set [2] (incubation in human plasma 0 h) was found to be 203.2 s; in data set [2] (setting [5]), 207.2 s; in data set [2] (incubation in human plasma 1 h), 214.2 s; in [2] (incubation in human plasma 2 h) it was 203.7 s; in data set [2] (incubation in human plasma 4 h), 209.7 s; in data set [2] (setting [6]) it was 248.7 s. For the same compound, in the data set on normal human plasma [3], the “Calc. Concentration 2 × XPT” value is 650 nM. Besides, the “Prothrombin Times” value with normal human plasma [3] (inhibitor 12.5 nM) was determined as 16.8 s; with normal human plasma [3] (inhibitor 250 nM) it was 20.8 s; with normal human plasma [3] (inhibitor 500 nM), 27.2 s; in the data set on normal human plasma [3] (inhibitor 750 nM), 44 s; in the data set with normal human plasma [3] (inhibitor 1000 nM) it was 152.7 s. The “Percent Inhibition” value in the data set with Sprague Dawley CD Rats stood at 76%. Further, the “stability in phosphate buffer at pH 7.5 (inhibitory activity)” value (from here on “stability … (inhibitory activity)”) in [4] was “little loss of inhibitor activity”. Further, the “Percent Activity” value on Human thrombin is reported as 3%.

For the compound `CC1CNc2c(cccc2S(=O)(=O)N[C@@H](CCCNC(=N)N)C(=O)N2CC[C@@H](C)C[C@@H]2C(=O)O)C1` (stereo partly drawn) [(2R,4R)-4-methyl-1[N^2 -{(3-methyl-1,2,3,4-tetrahydro-8-quinolinyl)sulfonyl}-L-arginyl]-2-piperid inecarboxylic acid], in the data set on plasma, the “increase of prothrombin times of plasma” value was 2 fold.

Regarding `CC(C)(C)OC(=O)N[C@H](Cc1ccccc1)C(=O)N1CCC[C@H]1C(=O)N[C@H](C=O)CCCNC(=N)N` [Boc-(D)Phe-Pro-Arg-H], the “size of venous thrombosis” value in the data set with rats is “reduces the size of venous thrombosis”.

As for `CC(C)(C)OC(=O)NC(Cc1ccccc1)C(=O)N1CCCC1C(=O)NC(CCCN=C(N)N)B1OC2CC3CC(C3(C)C)C2(C)O1.O=S(=O)(O)c1ccccc1` (stereo not drawn) [A, Boc-(D)Phe-Pro-boroArg-C10 H16.benzene sulfonic acid], the “Calc. Concentration 2 × APTT” value in the data set on normal human plasma [1] was 230 nM. Further, the “Activated Partial Thromboplastin Times” value with normal human plasma [1] (inhibitor 125 nM) came out at 36.6 s; in the data set on normal human plasma [1] (inhibitor 200 nM), 40.2 s; in the data set on normal human plasma [1] (inhibitor 250 nM) it was 81.2 s; with normal human plasma [1] (inhibitor 300 nM), 113.3 s; with normal human plasma [1] (inhibitor 350 nM), 128.7 s. Moreover, the “Clotting Time” value in data set [2] (incubation in human plasma 0 h) came out at 81.2 s; in data set [2] (setting [5]), 84.7 s; in [2] (incubation in human plasma 1 h) it was 79.7 s; in data set [2] (incubation in human plasma 2 h), 86.7 s; in data set [2] (incubation in human plasma 4 h), 98.2 s; in data set [2] (setting [6]), 92.2 s. For the same compound, the “Calc. Concentration 2 × XPT” value in the data set with normal human plasma [3] is given as 800 nM. Besides, the “Prothrombin Times” value in the data set on normal human plasma [3] (inhibitor 12.5 nM) was 16.4 s; in the data set on normal human plasma [3] (inhibitor 250 nM), 17.1 s; in the data set with normal human plasma [3] (inhibitor 500 nM), 21.5 s; in the data set on normal human plasma [3] (inhibitor 750 nM) it was 26.7 s; in the data set with normal human plasma [3] (inhibitor 875 nM), 40.1 s; in the data set with normal human plasma [3] (inhibitor 1000 nM), > 200 s. The “Percent Inhibition” value in the data set with Sprague Dawley CD Rats came to 59%. In addition, the “Percent Thrombin activity” value in data set [4] (setting [7]) stood at 3.3%; in [4] (6.5 hr in 0.20 M sodium phosphate buffer pH 7.5, room temperature), 1.6%; in data set [4] (24 hr in 0.20 M sodium phosphate buffer pH 7.5, room temperature) it was 0.8%. Also, the “stability … (inhibitory activity)” value in data set [4] is listed as “little loss of inhibitor activity”. The “Percent Activity” value at Human thrombin is 3%.

For `N=C(N)NCCC[C@@H](C=O)NC(=O)[C@@H]1CCCN1C(=O)[C@H](N)Cc1ccccc1` [H-(D)Phe-Pro-Arg-H], the Ki on thrombin was 75 nM.

Turning to `N=C(N)NCCC[C@H](NC(=O)[C@@H]1CCCN1C(=O)[C@H](N)Cc1ccccc1)C(=O)CCl` [H-(D)Phe-Pro-ArgCH2 Cl], the “prevention of coronary thrombosis” value in the data set on rabbit was “effective in the prevention of coronary thrombosis”.

As to `CC1(C)C2CC3OB(C(CCCN=C(N)N)NC(=O)C4CCCN4C(=O)C(N)Cc4ccccc4)OC3(C)C1C2.Cl.Cl` (stereo not drawn) [B, H-(D)Phe-Pro-boroArg-C10 H16.2HCl], the “Calc. Concentration 2 × APTT” value with normal human plasma [1] is 170 nM. Moreover, the “Activated Partial Thromboplastin Times” value in the data set with normal human plasma [1] (inhibitor 62.5 nM) stood at 36.5 s; in the data set on normal human plasma [1] (inhibitor 125 nM), 44.2 s; in the data set with normal human plasma [1] (inhibitor 200 nM) it was 71.5 s; in the data set on normal human plasma [1] (inhibitor 250 nM) it was 158.7 s; with normal human plasma [1] (inhibitor 300 nM), 169.7 s; with normal human plasma [1] (inhibitor 350 nM), 249.7 s. For the same compound, the “Clotting Time” value in [2] (incubation in human plasma 0 h) was found to be 152.2 s; in data set [2] (setting [5]) it was 157.7 s; in [2] (incubation in human plasma 1 h), 163.7 s; in data set [2] (incubation in human plasma 2 h), 152.8 s; in data set [2] (incubation in human plasma 4 h), 157.7 s; in data set [2] (setting [6]) it was 109.3 s. In addition, the “stability in human plasma (inhibitor activity by clotting time)” value in data set [2] (incubation with plasma) was “lost activity after 24 h”. In the data set on normal human plasma [3], the “Calc. Concentration 2 × XPT” value is listed as 460 nM. Further, the “Prothrombin Times” value in the data set with normal human plasma [3] (inhibitor 12.5 nM) is 20.1 s; with normal human plasma [3] (inhibitor 250 nM), 22.5 s; in the data set on normal human plasma [3] (inhibitor 500 nM), 33.8 s; with normal human plasma [3] (inhibitor 625 nM), 46.5 s; in the data set on normal human plasma [3] (inhibitor 750 nM), 85.3 s; in the data set on normal human plasma [3] (inhibitor 1000 nM), > 250 s. Also, the figures for the “Percent Activity” value on Human plasma kallikrein and on Human thrombin were 61% and 7%, respectively. The “Percent Thrombin activity” value in data set [4] (setting [7]) is 2.0%; in [4] (0.5 hr in 0.20 M sodium phosphate buffer pH 7.5, room temperature) it was 15%; in [4] (1 hr in 0.20 M sodium phosphate buffer pH 7.5, room temperature), 100%. The “stability … (inhibitory activity)” value in data set [4] was “loses its biological activity over a period of an hour”; in [4] (listed as H-(D)Phe-Pro-boroArg-C10 H16), “lost inhibitory activity within one hour”.

A word on the Ki: it is a dissociation constant, usually derived from enzyme kinetics or from competition with a known ligand.
